Where a name gives a salt, the structure may show the parent alone. Read-outs that look alike come from different tables or passages of the source.
How the values were obtained:
dopamine D-1 receptor = target: T1, dopamine D-1 receptor (Rattus norvegicus, UniProt P18901); test: Competitive inhibition assay, displacement of 3H-SCH 23390 (D-1 receptor binding); design: species or system rat (male Sprague-Dawley, striatal tissue)
T1 construct: Striatal tissue was excised, pooled, and homogenized; from tissue; host or cells: rat striatum, washed membrane pellet (male Sprague-Dawley rats, Charles River)
T1 sequence (P18901 whole entry): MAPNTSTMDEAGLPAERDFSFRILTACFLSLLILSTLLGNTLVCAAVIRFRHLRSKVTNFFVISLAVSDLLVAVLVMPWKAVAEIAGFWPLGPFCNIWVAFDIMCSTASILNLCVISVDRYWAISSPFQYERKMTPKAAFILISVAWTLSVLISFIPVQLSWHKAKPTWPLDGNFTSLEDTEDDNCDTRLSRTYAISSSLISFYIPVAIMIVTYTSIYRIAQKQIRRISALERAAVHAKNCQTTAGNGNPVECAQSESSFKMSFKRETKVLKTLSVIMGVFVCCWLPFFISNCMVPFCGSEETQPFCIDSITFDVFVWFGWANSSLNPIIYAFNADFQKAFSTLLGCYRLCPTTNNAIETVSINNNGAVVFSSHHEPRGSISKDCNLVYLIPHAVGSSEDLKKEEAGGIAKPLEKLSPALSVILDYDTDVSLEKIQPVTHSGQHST
From the text: (§1) Many compounds capable of effecting reproducible physiological changes in neural tissues are believed to operate by binding at one or more receptor sites.
(§2) A methodology for characterization of D-1 and D-2 receptor binding and an interpretation of the data are described by Billard et al., Life Sciences 35, 1885 (1984) in which the binding of the benzazepine (R)-(+)-8-chloro-2,3,4,5-tetrahydro-3-methyl-5-phenyl-1H- 3-benzazepin-7-ol hemimaleate (SCH 23390) to the dopamine D-1 receptor is characterized. A selectivity for D-1 receptor binding as compared to D-2 receptor binding is believed to confer the therapeutic advantage of avoiding troublesome and potentially irreversible neurological side effects associated with D-2 receptor occupancy.
(§3) Tritiated SCH 23390 and tritiated spiperone (a potent D-2 receptor ligand) were obtained as described in the Billard et al. reference supra and serially diluted in 0.05M Tris buffer, pH 7.4, as required. Compounds of this invention were synthesized as disclosed herein and diluted in 0.05M Tris buffer, pH 7.4, as required.
(§4) Male Sprague-Dawley rats (200 to 250 g) from Charles River Breeding Laboratories, Mass. were used to obtain brain tissue. The rats were humanely sacrificed and their brains removed and placed on ice. Striatal tissue was excised, pooled, and homogenized (Brinkman Polytron, 10 sec) in 100 volumes (w/v) of ice cold 50 mM Tris buffer, pH 7.4 (at 25° C.). The homogenate was centrifuged at 20,000 xg for 10 min. The resultant pellet was rehomogenized in Tris buffer and centrifuged again. The final pellet was resuspended in 50 mM Tris buffer pH 7.4 containing 120 mM NaCl, 5 mM KCl, 2 mM CaCl2, and 1 mM MgCl2.
(§5) Polypropylene incubation tubes received 100 μl of the individual test compounds at various concentrations dissolved or suspended in 0.05M Tris, pH 7.4 containing 4 mg/ml methylcellulose, 100 μl of a solution of ^3 H-SCH 23390 in Tris buffer (final reaction mixture concentration=0.3 nM) or 100 μl of a solution of ^3 H-spiperone in Tris buffer (final concentration=0.2 nM) and 800 μl of tissue suspension (ca. 3 mg/assay). Tubes were incubated at 37° C. for 15 minutes and rapidly vacuum filtered through Whatman GF/B filters and rinsed 4 times with 4 ml of ice cold 50 mM Tris buffer, pH 7.4. The filters were transferred to scintillation vials, equilibated with 10 ml of scintillant (Scintosol, Isolab, Inc.) for 16 hours at 25° C. and the radioactivity determined in a liquid scintillation counter. Ki values were determined as described by Billard et al. using the relationship Ki = IC50 /(1+([L]/KD)) wherein IC50 =concentration of test drug necessary to displace 50% of specifically bound ^3 H-Sch 23390, [L]=concentration of radioligand used in the assay, and KD =dissociation constant.

D-2 receptor = target: T2, D-2 receptor (Rattus norvegicus, UniProt P61169); test: Competitive inhibition assay, displacement of 3H-spiperone (D-2 receptor binding); design: species or system rat (male Sprague-Dawley, striatal tissue)
T2 construct: Striatal tissue was excised, pooled, and homogenized; from tissue; host or cells: rat striatum, washed membrane pellet (male Sprague-Dawley rats, Charles River)
T2 sequence (P61169 whole entry): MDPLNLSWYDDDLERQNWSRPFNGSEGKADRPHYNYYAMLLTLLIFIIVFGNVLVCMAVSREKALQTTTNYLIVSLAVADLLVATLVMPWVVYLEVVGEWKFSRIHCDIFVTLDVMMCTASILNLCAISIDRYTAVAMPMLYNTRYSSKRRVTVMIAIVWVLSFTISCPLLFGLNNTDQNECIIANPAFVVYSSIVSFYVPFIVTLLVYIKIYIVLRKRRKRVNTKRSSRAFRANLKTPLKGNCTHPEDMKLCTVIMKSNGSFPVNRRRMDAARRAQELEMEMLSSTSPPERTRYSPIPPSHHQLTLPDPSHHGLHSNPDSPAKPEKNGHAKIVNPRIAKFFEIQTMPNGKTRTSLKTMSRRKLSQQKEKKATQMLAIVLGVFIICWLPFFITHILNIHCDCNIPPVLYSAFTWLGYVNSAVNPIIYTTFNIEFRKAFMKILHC
From the text: as §1, §2, §3, §4, §5

[1] = Conditioned avoidance suppression (CAR) in rats; format: in vivo; settings: lowest dose significantly (P≤0.05) reducing avoidance responding, rat, in mg/kg
Experimental: A series of experiments was carried out to assess the ability of the compounds of this invention to suppress the conditioned avoidance response (CAR) in rats.
Rats were required to jump onto a platform located 6.75 inches (17.15 cm) above the grid floor of an experimental chamber in response to a 5-second tone to avoid a 10-second foot shock (0.6 ma). Each experimental session consisted of 20 such trials presented at 30-second intervals. A correct CAR is scored whenever the rat jumps onto the platform during the tone (prior to foot shock). An escape response is scored when the rat jumps onto the platform during a shock. A response failure is defined as the lack of an escape response during the 10-second shock period.
Groups of 6-8 rats were trained in two consecutive days (total of 40 trials). Rats that reached criterion on day 2 (correct CARs on 16 or more of the 20 trials) were treated with either a test drug or vehicle on day 3. Suppression of CAR was analyzed statistically using Student's t-test comparing the performance of rats on day 2 with their performance following drug on day 3.

[2] = Squirrel monkey conditioned avoidance response (CAR) test; format: in vivo; settings: for MEAN (±SE) NUMBER OF […] 6 HOURS POST-TREATMENT: 10 mg/kg p.o., vehicle 59.1 + 0.9 (N=7); for ability to significantly decrease the number of avoidances six hours after dosing (duration): 10 mg/kg po, six hours prior to testing; for ED50: Primates, po
From the text: This test was designed to measure the effective duration of candidate compounds.
Male or female squirrel monkeys weighing 800-1200 g housed one per cage were utilized. Initially each monkey was taught to terminate a 3 mA electric shock delivered through the grid floor of the test cage and an overlapping tone by depressing a lever in the cage.
In the second phase of the testing, a ten second tone is turned on prior to the shock component. A lever press during the sounding of the tone terminates the tone and prevents the occurrence of the shock component and is denoted as an "avoidance".
The compound testing was commenced after three consecutive days of re-testing. […] The monkey must achieve at least an 85% correct avoidance before drug testing commences. If this minimal avoidance level is achieved, the next day the monkey is orally dosed or injected with the subject compounds in the appropriate vehicle and the number of avoidances are recorded. An animal is defined as having been "affected" by any drug treatment if there is a 50% loss of avoidance behavior relative to the performance of the animal when only the vehicle was injected. The minimal effective dose (MED) is defined as that dose producing an effect in at least 50% of the animals.
A test was conducted to determine the effective duration of a compound of the present invention, 6,7,7a,8,9,13b-hexahydro-3-chloro-2-hydroxy-7-methyl-5H-benzo[ d]naphtho[2,1-b]azepine, denoted as Compound A, compared to a known compound, (d)-7-chloro-8-hydroxy-3-methyl-1-phenyl-2,3,4,5-tetrahydro-1h-3-benzazepine maleate, denoted as Compound B (Sch 23390)
The duration of each compound was determined by administering a 10 mg/kg po dose six hours prior to testing.

[3] = rat striatum, 3H-spiperone 0.2 nM, pH 7.4, 37° C., 15 min, read-out: Ki, 3H-Spip
[4] = rat striatum, 3H-SCH 23390 0.3 nM, pH 7.4, 37° C., 15 min, read-out: Ki, 3H-23390

Ki (dopamine D-1 receptor; [4]) | SMILES | Ki (D-2 receptor; [3]) | Ki (D-2 receptor) | CAR (MED) ([1]; po) | also measured
– | CN1CCc2cc(Cl)c(O)cc2[C@@H]2c3ccccc3C[C@H]21 (relative stereo) [CH2, 0, trans, Cl, OH, trans-5,6,7,7a,8,12b-Hexahydro-2-hydroxy-3-chloro-7-methyl-benz[d]indeno[2,1-b]azepine] | 2.6 µM | – | – | Ki (dopamine D-1 receptor): 10 nM
– | COc1cc2c(cc1O)CCN(C)[C@@H]1CCc3ccccc3[C@H]21 (relative stereo) [CH2, 1, cis, HO, CH3O] | – | > 100 µM | – | –
– | COc1cc2c(cc1O)[C@H]1c3ccccc3CC[C@@H]1N(C)CC2 (relative stereo) [CH2, 1, trans, CH3O, OH, trans-6,7,7a,8,9,13b-Hexahydro-2-hydroxy-3-methoxy-7-methyl-5H-benzo[d]naphtho[2,1-b]azepine] | – | 2.5 µM | 30 | Ki (dopamine D-1 receptor): 23 nM; CAR (MED) ([1]; sc): 0.3-1
– | CN1CCc2cc(Cl)c(N)cc2[C@H]2c3ccccc3CC[C@@H]21 (relative stereo) [CH2, 1, trans, Cl, NH2] | 4.17 µM | – | 3 | Ki (dopamine D-1 receptor): 70 nM
– | CN1CCc2cc(Cl)c(O)cc2[C@H]2c3ccccc3CC[C@@H]21 (relative stereo) [CH2, 1, trans, Cl, OH, trans-6,7,7a,8,9,13b-Hexahydro-3-chloro-2-hydroxy-7-methyl-5H-benzo[d]naphtho[2,1-b]azepine] | – | – | 30 | CAR (MED) ([1]; sc): 0.3
– | CN1CCc2ccc(O)cc2[C@H]2c3ccccc3CC[C@@H]21 (relative stereo) [CH2, 1, trans, H, OH, trans-6,7,7a,8,9,13b-Hexahydro-2-hydroxy-7-methyl-5H-benzo[d]naphtho[2,1-b]azepine] | 3.5 µM | – | – | Ki (dopamine D-1 receptor): 80 nM
– | COc1cc2c(cc1O)CCN(C)[C@H]1CCc3ccccc3[C@H]21 (relative stereo) [CH2, 1, trans, HO, CH3O, trans-6,7,7a,8,9,13b-Hexahydro-3-hydroxy-2-methoxy-7-methyl-5H-benzo[d]naphtho[2,1-b]azepine] | – | > 100 µM | – | –
292 nM | COc1cc2c(cc1O)[C@H]1c3ccccc3CCC[C@@H]1N(C)CC2 (relative stereo) [CH2, 2, trans, CH3O, OH] | > 100 µM | – | – | CAR (MED) ([1]; sc): 10
7730 nM | COc1cc2c(cc1O)CCN(C)[C@H]1CCCc3ccccc3[C@H]21 (relative stereo) [CH2, 2, trans, HO, CH3O] | > 100 µM | – | – | CAR (MED) ([1]; sc): 10
121 nM | CN1CCc2ccc(O)cc2[C@@H]2c3ccccc3OC[C@H]21 (relative stereo) [O, 1, trans, H, OH, trans-6,6a,7,8,9,13b-Hexahydro-7-methyl-[1]benzopyrano[4,3-a][3]benzazepin-12-ol] | – | – | – | –
– | CN1CCc2cc(Cl)c(O)cc2[C@H]2c3ccccc3CC[C@@H]21 [CH2, 1, 7b(R):7a(S)(-), Cl, OH, (-)-trans-6,7,7a,8,9,13b-Hexahydro-3-chloro-2-hydroxy-7-methyl-5H-benzo[b]naphtho[2,1-b]azepine] | – | – | 30 | –
– | CN1CCc2cc(Cl)c(O)cc2[C@@H]2c3ccccc3CC[C@H]21 [CH2, 1, 7b(S):7a(R)(+), Cl, OH, (+)-trans-6,7,7a,8,9,13b-hexahydro-3-chloro-2-hydroxy-7-methyl-5H-benzo[d]naphtho[2,1-b]azepine] | – | – | > 30 | –
– | CN1CCc2cc(Cl)c(O)cc2C2c3ccccc3CCC21 (stereo not shown) [Compound A, 6,7,7a,8,9,13b-hexahydro-3-chloro-2-hydroxy-7-methyl-5H-benzo[d]naphtho[2,1-b]azepine] | – | – | – | MEAN (±SE) NUMBER OF […] 6 HOURS POST-TREATMENT [2]: 23.9 + 7.5; ability to significantly decrease the number of avoidances six hours after dosing (duration) [2]: significant decrease in the number of avoidances (≤0.05); ED50 ([2]; 1 h, administered 60 minutes prior to the test, read-out: ED50): ~1.6 mg/kg
– | CN1CCc2cc(Cl)c(O)cc2[C@@H](c2ccccc2)C1 [Compound B, (d)-7-chloro-8-hydroxy-3-methyl-1-phenyl-2,3,4,5-tetrahydro-1h-3-benzazepine maleate, reference compound] | – | – | – | MEAN (±SE) NUMBER OF […] 6 HOURS POST-TREATMENT [2]: 59.7 + 0.3; ability to significantly decrease the number of avoidances six hours after dosing (duration) [2]: inactive; ED50 ([2]; 0.5 h): 2.4 mg/kg

SMILES | Ki (dopamine D-1 receptor; [4]) | Ki (D-2 receptor; [3]) | Ki (D-2 receptor) | CAR (MED) ([1]; po) | also measured
COc1cc2c(cc1O)[C@H]1c3ccccc3CC[C@H]1N(C)CC2 (relative stereo) [CH2, 1, cis, CH3O, OH] | 6450 nM | – | > 100 µM | – | –
Cc1cc2c(cc1O)[C@H]1c3ccccc3CC[C@@H]1N(C)CC2 (relative stereo) [CH2, 1, trans, CH3, OH, trans-6,7,7a,8,9,13b-hexahydro-2-hydroxy-3-methyl-7-methyl-5 H-benzo[d]naphtho[2,1-b]azepine] | 119 nM | – | 7.2 µM | – | –
